Experiments:
CSNK1G2 = CSNK1G2 (Homo sapiens, UniProt P78368); test: Kinase panel: CSNK1G2; format: biochemical; details: 10 μM EP009
Method: Achieving JAK3 selectivity remains a significant challenge in the development of new small molecules for the treatment of cancer and immune-derived diseases. As such, the inventors employed cell-based screening assays of small-molecule libraries based upon the chemical scaffold of the established JAK3 inhibitor NC1153 (Stepkowski et al., J Immunol. (2005), 175(7):4236-4246) EP009 (FIG. 2A) was selected as a lead compound due to improved intrinsic stability (>95% purity in various solvents at 37° C. for 24 hours; FIG. 3) and high-degree of JAK3 selectivity. To test JAK3 versus JAK2 specificity of EP009, the IL-2/JAK3-dependent Kit225, and IL-3/JAK2-dependent BaF/3 cell lines were used. Kit225 and BaF/3 cells growing in the presence of IL-2 or IL-3, respectively, were treated with ascending concentrations of EP009 for 12 hours and cellular JAK3 and JAK2 tyrosine phosphorylation levels detected by Western blot analysis (FIGS. 2B and 2C). Following densitometric analysis, EP009 was determined to dose-dependently reduce IL-2-mediated JAK3 tyrosine phosphorylation with a cellular 50% inhibitory concentration (IC50) between 10 and 20 μM (FIG. 2B). […] To globally evaluate specificity, the inhibitory activity of EP009 was measured against a panel of protein kinases distributed throughout the kinome using the scanEDGE profiling service (KINOMEscan). […]

HEK293 = HEK293 cell viability (MTS); format: cell-based, human; details: 72 hours, concentrations giving complete loss of JAK3-dependent cell viability (0-10 μM)
Method: (§1) FIGS. 2A-2F. Selective inhibition of JAK3 by EP009 results in loss of JAK3-dependent tumor cell line viability with no detectable off-target effects in key cell types. (A) Chemical structure of EP009 (M.W. 224.34). (B) Kit225 or (C) BaF/3 cells cultured in the presence of IL-2 or IL-3, respectively, were treated with vehicle (PBS; lane a) or increasing amounts of EP009 (0-50 μM; lanes b-h) for 12 hours. Cells were then lysed, clarified, and immunoprecipitated (IP) with anti-JAK3 (α-JAK3) or anti-JAK2 (α-JAK2), and subjected to Western blot (WB) analysis with anti-phosphotyrosine (α-pY). Blots were stripped and reprobed with corresponding antibody to verify equivalent protein loading. […] (E) Kit225 or BaF/3 cells were cultured with increasing amounts of EP009 (0-10 μM) for 72 hours and cell viability measured with the MTS tetrazolium salt assay. Values represent mean absorbance (OD490-OD650 nm) normalized to vehicle (PBS) treated control cells, while error bars represent the standard deviation (n=3). (F) HEK293, HEPG2, or naïve primary human PBMCs were cultured with increasing amounts of EP009 (0-10 μM) for 72 hours and cell viability measured with the MTS tetrazolium salt assay. Values represent mean absorbance (OD490-OD650 nm) normalized to vehicle (PBS) treated control cells, while error bars represent the standard deviation (n=3). […]

JAK3 = JAK3 (Homo sapiens, UniProt P52333); test: IL-2-mediated JAK3 tyrosine phosphorylation in Kit225 cells (IP/Western blot, densitometry); format: cell-based; set-up: cellular JAK3 and JAK2 tyrosine phosphorylation levels detected by Western blot analysis; endogenous in cells; host or cells: Kit225; details: 12 hours, densitometric analysis, read-out: cellular IC50, IL-2-mediated JAK3 tyrosine phosphorylation
Method: as §1

Chain of JAK3 (P52333 whole entry): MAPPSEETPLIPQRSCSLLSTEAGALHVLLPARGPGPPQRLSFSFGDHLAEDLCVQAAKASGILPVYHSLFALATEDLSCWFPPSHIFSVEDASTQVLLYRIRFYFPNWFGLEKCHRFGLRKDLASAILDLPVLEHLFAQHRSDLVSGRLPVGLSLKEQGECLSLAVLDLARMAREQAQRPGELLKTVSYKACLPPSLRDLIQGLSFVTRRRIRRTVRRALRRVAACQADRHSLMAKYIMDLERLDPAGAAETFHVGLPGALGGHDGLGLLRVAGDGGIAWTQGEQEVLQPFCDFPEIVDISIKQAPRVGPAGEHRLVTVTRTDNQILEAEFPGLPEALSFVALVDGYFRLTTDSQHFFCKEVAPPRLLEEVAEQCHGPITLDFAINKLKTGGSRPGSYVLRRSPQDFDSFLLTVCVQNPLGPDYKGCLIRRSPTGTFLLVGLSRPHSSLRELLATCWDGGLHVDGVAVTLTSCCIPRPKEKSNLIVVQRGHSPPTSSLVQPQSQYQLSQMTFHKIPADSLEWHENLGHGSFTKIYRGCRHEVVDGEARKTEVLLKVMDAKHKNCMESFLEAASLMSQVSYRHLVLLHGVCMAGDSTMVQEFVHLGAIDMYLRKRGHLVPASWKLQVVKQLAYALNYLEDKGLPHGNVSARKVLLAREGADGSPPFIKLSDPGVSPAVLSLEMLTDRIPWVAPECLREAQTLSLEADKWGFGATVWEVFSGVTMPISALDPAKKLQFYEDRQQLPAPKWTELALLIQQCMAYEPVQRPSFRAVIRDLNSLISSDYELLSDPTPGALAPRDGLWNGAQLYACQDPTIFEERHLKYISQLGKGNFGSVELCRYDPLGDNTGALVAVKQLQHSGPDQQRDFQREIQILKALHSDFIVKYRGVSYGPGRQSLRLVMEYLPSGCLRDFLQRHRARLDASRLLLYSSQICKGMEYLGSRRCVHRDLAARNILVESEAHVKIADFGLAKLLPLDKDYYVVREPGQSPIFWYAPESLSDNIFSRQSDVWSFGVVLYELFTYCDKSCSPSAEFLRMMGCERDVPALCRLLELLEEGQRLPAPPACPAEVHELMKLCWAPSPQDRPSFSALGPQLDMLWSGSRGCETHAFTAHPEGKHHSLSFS
Chain of CSNK1G2 (P78368 whole entry): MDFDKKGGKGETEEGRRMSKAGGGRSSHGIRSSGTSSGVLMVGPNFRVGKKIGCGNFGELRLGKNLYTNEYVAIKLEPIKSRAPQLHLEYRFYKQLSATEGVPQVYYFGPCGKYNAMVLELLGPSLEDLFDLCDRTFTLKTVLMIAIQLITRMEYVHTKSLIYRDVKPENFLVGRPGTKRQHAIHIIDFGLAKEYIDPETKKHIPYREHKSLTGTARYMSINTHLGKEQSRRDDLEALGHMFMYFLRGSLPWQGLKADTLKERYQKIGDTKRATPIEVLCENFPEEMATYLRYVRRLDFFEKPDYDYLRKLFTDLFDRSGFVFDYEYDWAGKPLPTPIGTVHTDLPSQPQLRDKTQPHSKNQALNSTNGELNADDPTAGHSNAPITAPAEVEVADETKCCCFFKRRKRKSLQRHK

SMILES: C=C1CCCCCCCCCC(CO)C1=O (stereo not drawn) [EP009, 2-(Hydroxymethyl)-12-methylenecyclododecanone]
- Kinase Activity (% of Control) (CSNK1G2): 100 % of Control
- effect on HEK293 cell viability (HEK293): no detectable loss of cell viability
- IC50 (JAK3): 10 to 20 µM
